According to ChEMBL document CHEMBL1201862, “PubChem BioAssay data set” (2004):
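Protocol summary: plate cells (96-well), add compound at 5 concentrations, incubate 48 h, interpolate endpoints linearly. GI50 = concentration required for 50% inhibition of growth.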 The source made the active and inactive calls. Cut-off read from the data, not from the text of the source: active = GI50 up to about 1.1 µM and inactive = higher.

Tests used:
Experiment in all cases: NCI anticancer screen, dose series, 48 h
786-0 = tested on: 786-0
DU-145 = tested on: DU-145
EKVX = tested on: EKVX
HCT-15 = tested on: HCT-15
HOP-92 = tested on: HOP-92
M14 = tested on: M14
MCF7 = tested on: MCF7
MDA-MB-231 = tested on: MDA-MB-231
MOLT-4 = tested on: MOLT-4
NCI-H226 = tested on: NCI-H226
NCI-H23 = tested on: NCI-H23
NCI-H460 = tested on: NCI-H460
OVCAR-3 = tested on: OVCAR-3
RXF 393 = tested on: RXF 393
SF-268 = tested on: SF-268
SK-OV-3 = tested on: SK-OV-3
SW-620 = tested on: SW-620
UACC-257 = tested on: UACC-257
HCC 2998 = tested on: HCC 2998

| SMILES | GI50 (786-0) | GI50 (DU-145) | GI50 (EKVX) | GI50 (HCT-15) | GI50 (HOP-92) | GI50 (M14) | GI50 (MCF7) | GI50 (MDA-MB-231) | GI50 (MOLT-4) | GI50 (NCI-H226) | GI50 (NCI-H23) | GI50 (NCI-H460) | GI50 (OVCAR-3) | GI50 (RXF 393) | GI50 (SF-268) | GI50 (SK-OV-3) | GI50 (SW-620) | GI50 (UACC-257) | GI50 (HCC 2998) |
| --- | --- | --- | --- | --- | --- | --- | --- | --- | --- | --- | --- | --- | --- | --- | --- | --- | --- | --- | --- |
| CC1=C2c3ccccc3N(S(=O)(=O)c3ccccc3)[C@H]2[C@H](C(=O)N2C3CC4CC[C@@]3(CS2(=O)=O)C4(C)C)CC1 (some centres undefined) | 0.41 µM (active) | > 100 µM (inactive) | 56.6 µM (inactive) | 5.36 µM | 22.5 µM (inactive) | 64.4 µM (inactive) | 18 µM (inactive) | > 100 µM (inactive) | 6.38 µM (inactive) | 37.4 µM (inactive) | 40.6 µM (inactive) | 5.48 µM (inactive) | 17 µM (inactive) | 0.222 µM (active) | 17.9 µM (inactive) | 22.1 µM (inactive) | > 100 µM (inactive) | 33.7 µM (inactive) |  |
| Cc1nc2c(N3CCCC3)nc(N3CCNCC3)nc2nc1NCc1ccccc1 | 4.9 µM (inactive) | 6.52 µM (inactive) | 8.11 µM (inactive) | 2.09 µM | 2.33 µM (inactive) | 1.94 µM (inactive) | 2.33 µM (inactive) | 2.95 µM (inactive) | 2.52 µM (inactive) | 13.1 µM (inactive) | 8.85 µM (inactive) | 3.56 µM (inactive) | 2.43 µM (inactive) |  | 3.85 µM (inactive) | 7.69 µM (inactive) | 2.36 µM (inactive) | 1.94 µM (inactive) | 1.53 µM (inactive) |
| C#CC(O)/C=C/C(O)CCCC(O)CC#CC(O)C#CC(O)CCCC(O)/C=C/CCCCCC(=O)CCCCCCCCCCCCCC(O)C(O)C#CC(=O)O (centres undefined) | > 50 µM (inactive) | > 50 µM (inactive) | > 50 µM (inactive) | > 50 µM | 13.5 µM (inactive) | > 50 µM (inactive) | 14.3 µM (inactive) | 12.1 µM (inactive) | 14 µM (inactive) | > 50 µM (inactive) | > 50 µM (inactive) | > 50 µM (inactive) |  |  | > 50 µM (inactive) | > 50 µM (inactive) |  | > 50 µM (inactive) | > 50 µM (inactive) |
| CCNC(=S)NNC(=O)C12CC3CC(CC(C3)C1)C2 | > 100 µM (inactive) | > 100 µM (inactive) |  | > 100 µM |  | > 100 µM (inactive) | > 100 µM (inactive) | > 100 µM (inactive) | > 100 µM (inactive) | > 100 µM (inactive) | > 100 µM (inactive) | > 100 µM (inactive) | > 100 µM (inactive) | > 100 µM (inactive) | > 100 µM (inactive) | > 100 µM (inactive) | > 100 µM (inactive) | > 100 µM (inactive) | > 100 µM (inactive) |
| NC(=O)C(c1ccccc1)N1OC2C(=O)N(Cc3ccccc3)C(=O)C2C1c1cccc(Oc2ccc(Cl)cc2)c1 (centres undefined) | 21.3 µM (inactive) | 33.1 µM (inactive) | 27.1 µM (inactive) | 30.4 µM | 33 µM (inactive) | 23.6 µM (inactive) | 28 µM (inactive) | 37.1 µM (inactive) | 32.8 µM (inactive) | 26.8 µM (inactive) | 36.2 µM (inactive) | 28.8 µM (inactive) | 19.9 µM (inactive) | 17.5 µM (inactive) | 35.8 µM (inactive) | 60.7 µM (inactive) | 48.8 µM (inactive) | 36.6 µM (inactive) |  |
| O=C1c2cscc2C(=O)C1(O)O | 61.5 µM (inactive) | > 100 µM (inactive) | 36.1 µM (inactive) | 45.8 µM | 31.7 µM (inactive) | 22.2 µM (inactive) | > 100 µM (inactive) | 74.1 µM (inactive) | 22.5 µM (inactive) | > 100 µM (inactive) | 22.1 µM (inactive) | > 100 µM (inactive) | 25.2 µM (inactive) |  | > 100 µM (inactive) | > 100 µM (inactive) | 20.4 µM (inactive) | 24.9 µM (inactive) |  |
